Assay results published in patent publication EP4699605A1, “USE OF NOVEL COMPOUND FOR TREATING INTRACTABLE DISEASES” (YJ Cerapeutics Inc., priority 2023, dated 2024).

Assays:
Assay type in all cases: in vivo, Sprague-Dawley rats
[1] = test system: traumatic spinal cord injury (SCI) model; test: Urinary function analysis in SCI model (residual urine volume, UBFS, bladder size and weight)
Protocol: To be used as a central nerve injury animal model, a traumatic spinal cord injury (SCI) model was prepared (FIG. 1A). Specifically, 230 to 250 g of male adult Sprague-Dawley rats were anesthetized by intraperitoneal injection of chloral hydrate (500 mg/kg), and then the back and neck regions were shaved, and the spinal cord under the back and neck regions was exposed without damaging the dura mater, and a laminectomy was performed at T9 to T10 levels. To stabilize the spine, the spinous processes of T8 and T11 were fixed, and the spine was damaged by free-falling a 10 g weight from a height of 25 mm using an NYU impactor onto the back surface of the exposed spinal cord and then the rats were left in a temperature and humidity-controlled chamber overnight while covering the muscles and skin. After surgery, the rats were subcutaneously injected with a supplement solution (5 ml, lactated ringer) and injected with antibiotics (gentamicin, 5 mg/kg, intramuscular injection) once daily for 5 days. The body weight, remaining food, and the weight of water were confirmed and recorded for all animals, and the bladder was emptied twice daily by passive bladder massage until reflex micturition was established. At this time, a Sham group was a group that was subjected to only laminectomy without damage.
In order to confirm the effect of YJ102 (Chemical Formula 1), a compound of the present disclosure, on urinary disturbances caused by spinal cord injury, immediately after preparing the traumatic spinal cord injury (SCI) model (FIG. 1A) prepared in Example 1 above, YJ102 was dissolved in DMSO, methyl pyrrolidinone, and water (1 : 1.5 : 1) and administered intraperitoneally at 5 mg/kg, and then intraperitoneally administered at 24-hour intervals for 7 days from the next day. Thereafter, the effect of improving bladder functions was analyzed through a residual urine volume test and a urinary bladder function score (UBFS). At this time, a Vehicle group was administered with the same amount of a solution of DMSO, methyl pyrrolidinone, and water. Specifically, in order to determine the amount of urine remaining in the bladder after spinal cord injury, bladder extrusion was performed twice a day by applying pressure to the central bottom portion of the lower abdomen using the index and middle fingers to empty the bladder, and the expelled urine was collected in a catheter and its volume was recorded. […]

ZO-1 and occludin = test: Urothelial tight junction proteins in bladder after SCI (Western blot, immunofluorescence)
Description: When bladder dysfunction occurred due to spinal cord injury, cystitis, etc., a decrease in tight junction protein in the urothelium in contact with urine occurred, which increased the permeability of the bladder wall to introduce the harmful substances into the tissue, and caused the death of the urothelium serving as a barrier, and an increase in inflammatory response in the bladder. In order to determine what effect the compound YJ102 of the present disclosure had on these pathological processes, the expression of tight junction proteins ZO-1 and occludin was confirmed by Western blot analysis and immunofluorescence staining, and the introduction of neutrophils and macrophages into the bladder was confirmed by immunofluorescence staining. Specifically, the cut bladder tissue sections were frozen in liquid nitrogen, ground in a mortar and pestle to be completely lysed, and homogenized by adding Lysis Buffer [50 mM Tris-HCl (pH 7.4), 150 mM NaCl, 2 mM MgCl2, 0.1% NP40]. The homogenized tissue sections were transferred to a microcentrifuge tube, rock at 4°C for 20 minutes, and then centrifuged at 25,000 × g for 10 minutes. The supernatant was transferred to a new microcentrifuge, the protein concentrations were measured using a BCA kit, and then samples for Western blot were prepared by adding a 1X sample buffer and boiling for 5 minutes. For Western blot, the same amounts of proteins were loaded onto SDS-PAGE, electrophored, and then transferred to a nitrocellulose membrane, reacted with primary antibodies Occludin (Invitrogen), ZO-1 (Invitrogen), ED-1 (Serotec), and β-actin (Sigma), and then blotted with secondary antibodies. In addition, for immunofluorescence staining, 10 µm-thick bladder tissue sections were treated with primary antibodies ZO-1 (Invitrogen), Occludin (Invitrogen), MPO (DAKO), and ED-1 (Serotec), respectively, and reacted according to a manufacturer's protocol, and then color-developed with secondary antibodies (Jackson immunoresearh).

microglia = test: Microglial activation in spinal cord of SNI model (OX-42 staining, p-p38MAPK Western blot)
Protocol: To be used as a peripheral nerve injury animal model, a sciatic nerve injury (SNI) model was prepared (FIG. 1C). Specifically, 200 to 220 g of male adult Sprague-Dawley rats were anesthetized by intraperitoneal injection of chloral hydrate (500 mg/kg), and then three terminal branches (tibial, common peroneal, and sural nerves) of the right sciatic nerve were approached, and the tibia nerve and the peroneal nerve were tightly ligated with 4-0 silk, and neurectomy was performed at a distal 3 mm position of the ligation site. At this time, a Sham group was a group that exposed only the sciatic nerve without damage.
To analyze the activation of microglia in the spinal cord, which were known to play an important role in the induction/persistence of neuropathic pain, 4 weeks after nerve injury in the SNI animal model, the spinal cord of 4 and 5 lumbar vertebrae was stained with OX-42 to confirm changes in cell shape and intensity. […] The supernatant was transferred to a new microcentrifuge, the protein concentration was measured using a BCA kit, and samples for Western blot were prepared by adding a 1X sample buffer and boiling for 5 minutes. […]

[2] = day 1 after spinal cord injury (SCI 1d), Western blot

`CCc1ccc(N(C(=O)COC)c2nc3cc(Cl)ccc3o2)cc1` [YJ102] was tested, and the bladder size ([1]; 5 mg/kg intraperitoneally) was “significantly reduced”, the bladder weight ([1]; 5 mg/kg intraperitoneally) was “significantly reduced” and the residual urine volume ([1]; 5 mg/kg intraperitoneally at 24-hour intervals, vs Veh group, from the first day of administration) was “significantly reduced”. For the same molecule, the “bladder function restoration using the UBFS” value ([1]; 5 mg/kg intraperitoneally, vs Vehicle group on day 3 and day 7 after spinal cord injury) was “significantly increased”, the “reduction in Occludin in the urothelium” value (ZO-1 and occludin; after spinal cord injury, immunofluorescence staining) was “inhibited” and the “reduction of the amount of Occludin” value (ZO-1 and occludin; [2]) was “significantly inhibited”. For the same molecule, the “reduction of the amount of ZO-1” value (ZO-1 and occludin; [2]) was “significantly inhibited”, the “microglia activation changes (OX-42 intensity, activated morphology)” value (microglia; 4 weeks after nerve injury, L4-L5 spinal cord, vs Vehicle) was “significantly reduced” and the “amount of p-p38MAPK” value (microglia; spinal cord, Western blot) was “significantly reduced”.
